Experimental data from ChEMBL document CHEMBL1201862, “PubChem BioAssay data set” (2004).
Structures can show the parent of a compound that is named as a salt. Calls of active or inactive are those of the source.

Key:
Prothrombin = Prothrombin (Bos taurus, UniProt P00735); assay: thrombin inhibition, dose response, biochemical, fluorescence polarization, uHTS hits (AID 602369); type: functional
HEK293 = assay: inhibitors of LMP1-driven NF-kB reporter, dose response, cell-based, HEK293, luciferase, cherry-pick (AID 588343); type: functional; details: Homo sapiens
[1] = target: 72 kDa type IV collagenase (Homo sapiens, UniProt P08253); assay: Dose Response validation of uHTS RPN11 inhibitor hits using a MMP-2 Fluorescence assay.; type: functional
72 kDa type IV collagenase, sequence (P08253 whole entry): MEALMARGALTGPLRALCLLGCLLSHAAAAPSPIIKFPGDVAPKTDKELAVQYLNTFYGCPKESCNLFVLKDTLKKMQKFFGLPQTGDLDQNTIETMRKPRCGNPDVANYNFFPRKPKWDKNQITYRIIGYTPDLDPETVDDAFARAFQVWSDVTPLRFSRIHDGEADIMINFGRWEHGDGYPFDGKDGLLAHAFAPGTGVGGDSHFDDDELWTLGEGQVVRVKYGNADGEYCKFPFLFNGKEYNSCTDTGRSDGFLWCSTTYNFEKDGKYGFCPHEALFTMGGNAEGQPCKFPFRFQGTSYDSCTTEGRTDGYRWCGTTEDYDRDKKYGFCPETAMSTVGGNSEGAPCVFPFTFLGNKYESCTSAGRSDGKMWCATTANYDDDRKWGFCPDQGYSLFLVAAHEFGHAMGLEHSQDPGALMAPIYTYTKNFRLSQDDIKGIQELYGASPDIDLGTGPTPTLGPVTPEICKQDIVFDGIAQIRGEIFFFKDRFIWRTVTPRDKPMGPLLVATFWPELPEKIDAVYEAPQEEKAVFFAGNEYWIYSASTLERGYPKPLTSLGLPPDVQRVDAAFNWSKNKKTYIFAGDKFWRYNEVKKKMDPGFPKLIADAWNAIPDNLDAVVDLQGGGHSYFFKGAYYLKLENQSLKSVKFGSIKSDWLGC

[2] = target: 26S proteasome non-ATPase regulatory subunit 14 (Homo sapiens, UniProt O00487); assay: inhibition of proteasome subunit RPN11 – biochemical, fluorescence polarization, uHTS hits, confirmation (AID 602368); type: functional
26S proteasome non-ATPase regulatory subunit 14, sequence (O00487 whole entry): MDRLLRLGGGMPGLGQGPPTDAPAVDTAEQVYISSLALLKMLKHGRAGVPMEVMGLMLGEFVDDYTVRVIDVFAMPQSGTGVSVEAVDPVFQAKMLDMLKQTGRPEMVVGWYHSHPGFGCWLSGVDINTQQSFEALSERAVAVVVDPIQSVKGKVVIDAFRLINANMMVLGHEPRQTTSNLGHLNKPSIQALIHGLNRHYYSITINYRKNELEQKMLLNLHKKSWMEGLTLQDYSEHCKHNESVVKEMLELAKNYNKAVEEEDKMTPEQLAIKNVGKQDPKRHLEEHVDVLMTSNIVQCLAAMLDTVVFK

[3] = target: T1, Nuclear receptor subfamily 0 group B member 1 (Homo sapiens, UniProt P51843); type: functional, cell-based;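 also: HEK293T cells transfected with SF-1 and DAX-1 plus StAR promoter luciferase reporter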
T1 sequence (P51843 whole entry): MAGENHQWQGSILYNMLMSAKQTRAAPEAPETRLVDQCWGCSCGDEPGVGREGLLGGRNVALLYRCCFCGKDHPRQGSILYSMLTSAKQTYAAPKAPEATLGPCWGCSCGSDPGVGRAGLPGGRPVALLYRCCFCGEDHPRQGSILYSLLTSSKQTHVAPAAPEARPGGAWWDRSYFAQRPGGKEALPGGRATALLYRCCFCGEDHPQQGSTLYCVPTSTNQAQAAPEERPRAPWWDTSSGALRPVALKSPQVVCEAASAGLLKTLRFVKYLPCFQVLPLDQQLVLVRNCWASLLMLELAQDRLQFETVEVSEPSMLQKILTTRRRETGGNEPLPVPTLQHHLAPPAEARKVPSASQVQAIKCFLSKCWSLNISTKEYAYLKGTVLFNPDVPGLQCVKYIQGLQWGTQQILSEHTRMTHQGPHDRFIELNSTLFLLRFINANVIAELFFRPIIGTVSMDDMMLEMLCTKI

cells = type: functional, cell-based
[4] = Luminescence Cell-Based Dose Confirmation HTS to Identify Inhibitors of Platelet Dense Granule Release. [Related pubchem assays: 1663 (Primary HTS), 1678 (Summary of Project)]; type: functional
Melanocortin receptor 4 = Melanocortin receptor 4 (Homo sapiens, UniProt P32245); type: functional, cell-based;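 also: Cell-based assay with luminescence read-out, confirmatory dose-response testing for agonist activity of biased ligands at MC4R; human U2OS cells with tagged receptor and beta-arrestin; potency of agonists that increase receptor coupling to beta-arrestin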
Melanocortin receptor 4, sequence (P32245 whole entry): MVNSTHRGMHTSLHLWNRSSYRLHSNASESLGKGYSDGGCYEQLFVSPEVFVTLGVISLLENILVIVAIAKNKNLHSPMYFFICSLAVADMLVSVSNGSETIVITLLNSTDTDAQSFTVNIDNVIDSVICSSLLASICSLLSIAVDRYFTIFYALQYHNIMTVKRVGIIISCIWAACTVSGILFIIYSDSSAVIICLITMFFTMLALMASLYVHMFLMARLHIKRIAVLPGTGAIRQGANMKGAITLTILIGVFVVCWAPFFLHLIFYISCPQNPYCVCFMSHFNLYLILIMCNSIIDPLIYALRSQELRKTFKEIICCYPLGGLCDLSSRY

INS1 = assay: beta cell apoptosis inhibitors, cytokine rescue, dose response, luminescence, retest (AID 449756); type: functional, cell-based; details: Rattus norvegicus;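 also: cell death triggered by IL-1 beta plus TNF-alpha plus IFN-gamma mixture; protective hits raise ATP signal compared with cytokine alone wells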
[5] = target: Luciferin 4-monooxygenase (Photinus pyralis, UniProt P08659); assay: firefly luciferase enzyme inhibitors, dose response, biochemical, luminescence (AID 1891)
Luciferin 4-monooxygenase, sequence (P08659 whole entry): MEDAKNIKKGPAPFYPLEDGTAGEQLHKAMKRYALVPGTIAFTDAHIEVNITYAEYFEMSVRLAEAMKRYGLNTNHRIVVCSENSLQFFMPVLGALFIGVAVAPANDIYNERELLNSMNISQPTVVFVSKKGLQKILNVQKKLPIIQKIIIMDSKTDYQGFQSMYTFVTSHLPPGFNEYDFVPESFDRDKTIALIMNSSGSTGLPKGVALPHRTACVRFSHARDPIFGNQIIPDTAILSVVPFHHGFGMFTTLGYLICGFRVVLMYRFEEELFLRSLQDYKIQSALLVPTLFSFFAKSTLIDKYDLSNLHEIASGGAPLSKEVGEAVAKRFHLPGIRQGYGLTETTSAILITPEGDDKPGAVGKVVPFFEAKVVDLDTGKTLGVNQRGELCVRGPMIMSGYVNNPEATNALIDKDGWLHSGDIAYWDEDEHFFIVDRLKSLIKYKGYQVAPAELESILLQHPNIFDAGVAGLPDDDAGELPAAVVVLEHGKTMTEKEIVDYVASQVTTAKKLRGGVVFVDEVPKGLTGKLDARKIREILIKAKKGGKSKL

[6] = growth suppression of PTEN-null colon cells, dose response, cell-based, HCT116 PTEN knockout (AID 1047); type: functional;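 also: HCT116 colon tumor cells with PTEN knocked out; cells exposed to compound for 60 hours before readout; potency for loss of cell viability measured by luminescence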
[7] = growth suppression of beta-catenin-knockout colon cells, dose response, cell-based, HCT116, human colon tumor (AID 1045); type: functional;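 also: HCT116 colon tumor cells with beta catenin knocked out; cells exposed to compound for 60 hours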
[8] = target: T2, Sentrin-specific protease 6 (Homo sapiens, UniProt Q9GZR1); assay: SAR Analysis of small molecule inhibitors of Sentrin-specific protease 6 (SENP6) using a Luminescent assay. [Related pubchem assays (depositor defined):AID2582, AID2599]; type: functional
T2 sequence (Q9GZR1 whole entry): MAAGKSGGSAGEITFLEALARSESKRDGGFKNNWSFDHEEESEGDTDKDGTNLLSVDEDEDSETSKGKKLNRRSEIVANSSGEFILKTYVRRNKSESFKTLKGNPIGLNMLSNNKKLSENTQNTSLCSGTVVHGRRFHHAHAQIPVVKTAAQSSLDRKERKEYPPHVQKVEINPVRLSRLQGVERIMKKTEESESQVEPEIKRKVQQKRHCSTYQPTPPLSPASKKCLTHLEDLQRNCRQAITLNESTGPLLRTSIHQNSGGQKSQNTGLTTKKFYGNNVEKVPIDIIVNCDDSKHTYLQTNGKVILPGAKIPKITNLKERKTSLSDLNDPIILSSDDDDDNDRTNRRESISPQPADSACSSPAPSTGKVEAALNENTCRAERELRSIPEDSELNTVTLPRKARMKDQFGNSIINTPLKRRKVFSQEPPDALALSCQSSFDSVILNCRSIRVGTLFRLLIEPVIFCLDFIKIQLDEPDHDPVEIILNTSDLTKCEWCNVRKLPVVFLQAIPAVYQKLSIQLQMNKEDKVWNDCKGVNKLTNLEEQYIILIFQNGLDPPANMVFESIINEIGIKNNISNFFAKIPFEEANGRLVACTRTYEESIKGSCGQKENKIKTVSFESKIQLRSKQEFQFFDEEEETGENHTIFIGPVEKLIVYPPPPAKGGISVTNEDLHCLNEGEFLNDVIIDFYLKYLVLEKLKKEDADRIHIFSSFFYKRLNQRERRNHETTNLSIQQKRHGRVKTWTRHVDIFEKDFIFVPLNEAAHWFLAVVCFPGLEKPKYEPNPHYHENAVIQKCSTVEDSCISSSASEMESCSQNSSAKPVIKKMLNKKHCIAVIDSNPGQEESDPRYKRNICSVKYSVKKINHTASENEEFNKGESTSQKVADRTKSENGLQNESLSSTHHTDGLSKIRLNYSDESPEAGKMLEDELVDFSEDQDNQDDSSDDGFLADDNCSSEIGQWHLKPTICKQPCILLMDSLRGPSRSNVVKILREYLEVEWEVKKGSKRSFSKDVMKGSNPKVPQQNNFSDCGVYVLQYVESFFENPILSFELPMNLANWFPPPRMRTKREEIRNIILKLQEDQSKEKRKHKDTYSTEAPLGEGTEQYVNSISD

Caspase-3 = target: T3, Caspase-3 (Homo sapiens, UniProt P42574); assay: SAR Analysis of small molecule inhibitors of Sentrin-specific proteases (SENPs) using a Caspase-3 Selectivity assay. [Related pubchem assays (depositor defined):AID2540, AID2599, AID434973, AID489001]; type: functional
T3 sequence (P42574 whole entry): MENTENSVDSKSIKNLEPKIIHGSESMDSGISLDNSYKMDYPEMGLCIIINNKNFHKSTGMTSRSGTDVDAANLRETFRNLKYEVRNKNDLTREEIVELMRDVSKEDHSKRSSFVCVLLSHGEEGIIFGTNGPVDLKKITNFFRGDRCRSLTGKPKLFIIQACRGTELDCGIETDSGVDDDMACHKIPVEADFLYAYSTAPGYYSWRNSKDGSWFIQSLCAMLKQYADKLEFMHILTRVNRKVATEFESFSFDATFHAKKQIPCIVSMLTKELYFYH

[9] = target: T4, Sentrin-specific protease 7 (Homo sapiens, UniProt Q9BQF6); assay: SENP7 protease inhibitors, SAR follow-up, biochemical, luminescence (AID 504497); type: functional
T4 sequence (Q9BQF6 whole entry): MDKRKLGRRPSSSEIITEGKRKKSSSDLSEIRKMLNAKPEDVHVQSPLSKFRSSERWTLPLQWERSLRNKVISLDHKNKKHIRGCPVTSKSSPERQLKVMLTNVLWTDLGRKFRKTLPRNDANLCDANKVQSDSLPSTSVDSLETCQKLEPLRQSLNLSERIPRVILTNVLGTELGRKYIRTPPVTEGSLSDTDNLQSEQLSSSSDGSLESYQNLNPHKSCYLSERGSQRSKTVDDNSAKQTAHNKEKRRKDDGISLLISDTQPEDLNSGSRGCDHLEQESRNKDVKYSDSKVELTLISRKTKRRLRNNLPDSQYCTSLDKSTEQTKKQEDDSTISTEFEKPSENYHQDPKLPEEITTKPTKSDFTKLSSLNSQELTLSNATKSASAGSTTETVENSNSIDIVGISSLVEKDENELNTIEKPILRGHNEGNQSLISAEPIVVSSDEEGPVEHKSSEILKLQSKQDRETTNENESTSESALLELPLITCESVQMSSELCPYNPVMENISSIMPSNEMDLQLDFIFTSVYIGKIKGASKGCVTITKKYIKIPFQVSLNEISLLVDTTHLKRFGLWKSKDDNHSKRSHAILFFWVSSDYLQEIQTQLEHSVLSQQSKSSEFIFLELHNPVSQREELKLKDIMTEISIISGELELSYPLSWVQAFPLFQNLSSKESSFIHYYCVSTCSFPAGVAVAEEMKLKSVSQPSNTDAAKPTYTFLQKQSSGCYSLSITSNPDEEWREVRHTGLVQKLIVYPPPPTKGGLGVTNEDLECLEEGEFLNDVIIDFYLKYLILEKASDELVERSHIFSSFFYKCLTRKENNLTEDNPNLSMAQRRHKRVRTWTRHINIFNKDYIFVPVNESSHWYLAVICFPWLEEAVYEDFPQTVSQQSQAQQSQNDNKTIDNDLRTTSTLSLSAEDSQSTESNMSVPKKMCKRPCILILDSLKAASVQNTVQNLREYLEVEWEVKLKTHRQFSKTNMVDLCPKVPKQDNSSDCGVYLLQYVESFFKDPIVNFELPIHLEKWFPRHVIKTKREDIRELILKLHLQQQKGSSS

[10] = target: T5, Sentrin-specific protease 8 (Homo sapiens, UniProt Q96LD8); assay: SENP8 protease inhibitors, SAR follow-up, biochemical, luminescence (AID 504501); type: functional
T5 sequence (Q96LD8 whole entry): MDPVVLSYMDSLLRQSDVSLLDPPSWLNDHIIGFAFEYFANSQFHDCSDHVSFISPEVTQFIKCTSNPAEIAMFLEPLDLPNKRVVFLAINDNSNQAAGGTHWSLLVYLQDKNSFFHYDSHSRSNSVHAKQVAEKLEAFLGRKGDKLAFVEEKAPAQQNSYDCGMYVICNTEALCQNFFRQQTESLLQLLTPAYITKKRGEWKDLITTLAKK

[11] = target: T6, RNA-binding protein pos-1 (Caenorhabditis elegans, UniProt G5EF15); assay: inhibitors of POS-1/mex-3 RNA binding, dose response, biochemical, fluorescence polarization (AID 1964);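 also: purified POS-1 fused to maltose binding protein made in E. coli; potency of compounds blocking POS-1 binding to fluorescent RNA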
T6 sequence (G5EF15 whole entry): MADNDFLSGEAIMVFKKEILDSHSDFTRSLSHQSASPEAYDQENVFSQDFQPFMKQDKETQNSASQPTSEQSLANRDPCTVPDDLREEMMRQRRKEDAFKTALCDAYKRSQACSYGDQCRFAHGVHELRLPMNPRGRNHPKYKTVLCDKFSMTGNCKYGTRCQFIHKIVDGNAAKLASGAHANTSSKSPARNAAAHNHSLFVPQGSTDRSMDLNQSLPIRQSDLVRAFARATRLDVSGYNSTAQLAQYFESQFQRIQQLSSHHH

[12] = target: T7, Zinc finger protein mex-5 (Caenorhabditis elegans, UniProt Q9XUB2); assay: MEX-5/TCR-2 RNA interaction inhibitors, dose response, biochemical, C. elegans, fluorescence polarization (AID 1960)
T7 sequence (Q9XUB2 whole entry): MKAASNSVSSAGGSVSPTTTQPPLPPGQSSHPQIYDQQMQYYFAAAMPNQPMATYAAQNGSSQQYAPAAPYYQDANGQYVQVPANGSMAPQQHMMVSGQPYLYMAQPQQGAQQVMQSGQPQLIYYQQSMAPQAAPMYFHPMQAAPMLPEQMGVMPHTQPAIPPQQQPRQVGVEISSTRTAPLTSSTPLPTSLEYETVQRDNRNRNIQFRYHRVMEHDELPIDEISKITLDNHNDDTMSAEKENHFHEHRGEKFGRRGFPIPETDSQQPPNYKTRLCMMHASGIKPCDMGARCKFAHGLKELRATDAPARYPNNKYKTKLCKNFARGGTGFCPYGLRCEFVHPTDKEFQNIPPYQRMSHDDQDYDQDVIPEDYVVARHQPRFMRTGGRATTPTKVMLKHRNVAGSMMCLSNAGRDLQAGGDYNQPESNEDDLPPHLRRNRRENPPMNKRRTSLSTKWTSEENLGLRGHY

[13] = target: T8, Endoribonuclease toxin MazF (Escherichia coli K-12, UniProt P0AE70); assay: MazF toxin RNase activators, dose response, biochemical, fluorescence, single-stranded RNA substrate, uHTS hits (AID 588481); type: functional
T8 sequence (P0AE70 whole entry): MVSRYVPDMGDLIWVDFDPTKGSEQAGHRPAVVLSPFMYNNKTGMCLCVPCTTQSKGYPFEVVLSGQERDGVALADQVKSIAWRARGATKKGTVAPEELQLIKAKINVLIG

[14] = target: T8, Endoribonuclease toxin MazF; assay: fluorescent RNA oligo signal without MazF, dose response, counter-screen for MazEF activator project, biochemical, fluorescence, single-stranded RNase substrate (AID 588502); type: functional
Vero = Vero cell cytotoxicity, cytotoxicity control for flavivirus capping enzyme inhibitors (AID 588742); type: functional; details: Chlorocebus sabaeus

Cc1ccsc1/C=C/c1ccc2ccccc2n1
IC50 (Prothrombin): 29.3 µM (active) | AC50 (HEK293): 15.8 µM (active) | IC50 [1]: > 100 µM (inactive) | IC50 [2]: 23.4 µM (active) | IC50 [3]: > 0.278 µM (active) | IC50 (cells): > 67.5 µM (inactive)

CCC(C)c1ccc(NC(S)=NC2CCN(Cc3ccccc3)CC2)cc1 (stereo not given)
EC50 [4]: > 112 µM (not active) | EC50 (Melanocortin receptor 4): > 9.91 µM (active) | AC50 (INS1): 6.84 µM (active) | EC50 [5]: > 112 µM (not active) | EC50 [6]: 13.5 µM (active) | EC50 [7]: 14.2 µM (active)

CCc1cccc2c(C(=O)CN3C(=O)c4ccccc4C3=O)c[nH]c12
IC50 [8]: > 99 µM (inactive) | IC50 (Caspase-3): > 99 µM (inactive) | IC50 [9]: > 99 µM (inactive) | IC50 [10]: > 99 µM (inactive)

COc1ccc2c(c1)c1nc3ccccc3nc1n2CCCN1C(=O)c2ccccc2C1=O
EC50 [11]: 32.7 µM (active) | EC50 [12]: 73.9 µM (inconclusive) | EC50 [13]: > 99 µM (inactive) | EC50 [14]: > 99 µM (inactive)

O=[N+]([O-])c1ccc(-c2nc(/C=C/c3ccc(F)cc3)no2)cc1
IC50 [8]: > 99 µM (inactive) | IC50 (Caspase-3): > 99 µM (inactive) | IC50 [9]: > 99 µM (inactive) | IC50 [10]: > 99 µM (inactive)

CN1CCN(C(c2ccccc2)c2ccc(Cl)cc2)CC1 (stereo not given) [CHLORCYCLIZINE HYDROCHLORIDE]
CC50 (Vero): > 40 µM (active)
